Literature values in patent publication US20260021122A1, “CANNABINOIDS AND USES THEREOF IN TREATMENT OF A DISEASE” (TECHNION RESEARCH & DEVELOPMENT FOUNDATION LIMITED, priority 2022, published 2026).

Columns and labels:
MDSCs = conditions: one study, literature; cited from earlier work
[1] = tested on: triple-negative breast cancer; conditions: conditioned media from CBD-treated cancer cells, literature; cited from earlier work

Compound	antitumor effects (MDSCs)	suppressive immune cell population of MDSCs (MDSCs)	levels of CCL3 [1]	levels of Granulocyte-macrophage (GM)-CSF [1]
CCCCC/C=C\C/C=C\C/C=C\C/C=C\CCCC(=O)OC(CO)CO [2-AG, 2-arachidonoylglycerol]	exhibits direct antitumor effects	increasing the suppressive immune cell population of MDSCs		
C=C(C)[C@@H]1CCC(C)=C[C@H]1c1c(O)cc(CCCCC)cc1O [CBD, Cannabidiol]			lowered the levels	lowered the levels
